Entries after “also recorded” stand apart in the source; their conditions may differ. Like-named read-outs stand apart in the source and are kept apart here.
Key:
Vibrio anguillarum = test: Bactericidal activity (MTT), Vibrio anguillarum; format: cell-based; conditions: for inhibition at 0.1 µM / inhibition at 1 µM / inhibition at 10 µM: Vibrio anguillarum, read-out: Bactericidal activity (%); for antibacterial activity against V. anguillarum: among the natural compounds
Experimental: (§1) Two bacterial fish pathogens, Vibrio harveyi and V. anguillarum were used to test the bactericidal activity of the target compounds, being previously isolated and identified as described in [65]. Lab strains were maintained at −20 °C in Tryptone Soy Broth (TSB, Difco Laboratories, Inc., Detroit, MI, USA) supplemented with 1% (w/v) NaCl (TSB1) and 50% (v/v) glycerol. […] Bacteria in TSB medium were then cultured at the same temperature with continuous shaking (100 rpm) for 24 h. Exponentially grown bacteria were resuspended in sterile PBS and adjusted to the concentration of 10^8 colony forming units (cfu)/mL. Each target compound (20 μL; concentrations 0.1, 1, and 10 µM) was added (in triplicates) to the wells of a flat-bottom 96-well plate, except for the positive control that consisted of 0.5% DMSO in PBS. Aliquots of 20 μL of the previously cultured bacteria were added, and the plate was incubated for 5 h at 25 °C. […] The plate was then centrifuged (4500 rpm, 10 min) and the precipitate dissolved in 200 μL of DMSO. The solution (100 μL) from each well was transferred to another flat-bottom 96-well plate. The absorbance of the dissolved formazan was measured at 570 nm. Bactericidal activity was expressed as percentage of nonviable bacteria, calculated as the difference between absorbance of surviving bacteria compared to the absorbance of bacteria in positive controls (100%).

[1] = tested on: Sparicotyle chrysophrii adults; test: microbe, parasite or virus in culture; conditions: Sparicotyle chrysophryii
Experimental: Firstly, the adult monogeneans were exposed to a range of four concentrations of tested compounds encompassing the full dose–response range; each compound stock at 10 mM was serially diluted 10 (1 mM), 10^2 (0.1 mM), 10^3 (0.01 mM), and 10^4 (1 µM) times. […] Ten monogeneans per well (in triplicate) were added to 2 mL sterile seawater (SW) in 6-well plates, checked at the stereomicroscope for visible signs of mechanical damage, and exposed to selected concentrations in the dark at room temperature (Table 1). The number of live/dead parasites was recorded under the stereomicroscope at 1, 4, 12, and 24 h post-exposure. S. chrysophrii was considered to be alive if it performed any type of movement autonomously or 5 s after gentle probing with a dissection needle. Negative controls comprised the seawater with up to 0.5% of DMSO in total volume, the latter used as a solvent for each compound.

Vibrio harveyi = test: Bactericidal activity (MTT), Vibrio harveyi; format: cell-based; conditions: for inhibition at 0.1 µM / inhibition at 1 µM / inhibition at 10 µM: Vibrio harveyi, read-out: Bactericidal activity (%)
Experimental: as §1

SAF-1 cells = test: Viability of SAF-1 cell line (MTT assay); format: cell-based, Sparus aurata; conditions: for viability of SAF-1 cells compared to control: 0.1–10 µM, 24, 48, 72 h
Experimental: Sparus aurata fibroblast cell line SAF-1 (ECACC n°00122301) was cultured in 25 cm^2 plastic flasks (Nunc, Darmstadt, Germany) in L-15 Leibowitz medium (Sigma, Haverhill, UK) supplemented with 10% fetal bovine serum (FBS), 2 mmol/L L-glutamine, 100 iu/mL penicillin, and […] streptomycin (all reagents from Sigma-Aldrich, Saint Louis, MO, USA).
Cells were grown at 25 °C under an 85% humidity atmosphere. Cells at 80% of confluence were detached with trypsin solution (0.25% of trypsin in PBS, pH 7.2–7.4) and pelleted by centrifugation (1000 rpm, 10 min, 25 °C). The cell suspension in complete medium was dispensed in a 96-multiwell plate at a density of 8000 cells/well and incubated for 24 h before the exposure to the compounds.
Cytotoxicity assay was performed in six replicates. Stock solutions were prepared by dissolving the compounds in dimethyl sulfoxide (DMSO), and then diluting in complete medium (final concentration of DMSO 0.1%) to obtain concentration of 0.1, 1, and 10 µM of target compounds.
Cells were then incubated for 24, 48, and 72 h in three different plates at 25 °C. Control samples received the same volume of culture medium and DMSO 0.1%, although this concentration of solvent is considered non-toxic.
The toxicity of the compounds was determined using the (3-(4,5-dimethylthiazol-2-yl)-2,5-diphenyltetrazolium bromide (MTT, Sigma-Aldrich) assay, according to [62], as reported in [61]. The results were expressed as viability percentage in respect to the controls (untreated cells).
The MTT assay is based on the reduction in the yellow soluble tetrazolium salt (3-(4,5-dimethylthiazol-2-yl)-2,5-diphenyltetrazolium bromide) (MTT, Sigma-Aldrich, Saint Louis, Missouri, USA) into a blue, insoluble formazan produced by the mitochondrial succinate dehydrogenase. […] After 4 h of incubation, cells were washed again, and the formazan crystals solubilized with […] of DMSO. Plates were shaken (5 min, 100 rpm) in dark conditions and the optical densities (ODs) at 570 nm with background subtraction at 690 nm were determined in a microplate reader (Opsys MR™ Microplate Reader, USA). The percentage of viability was determined by formula:Viability (%) = (OD of the tested sample/OD of the control sample) × 100

[2] = tested on: wild and drug-resistant Leishmania donovani amastigotes; set-up: method as in PMID 28400285; conditions: cited from earlier work
[3] = tested on: Sparicotyle chrysophrii adults; test: microbe, parasite or virus in culture; conditions: for LC20 (95% CI), toxicity level for adult S. chrysophrii: 20% mortality; for LC20 (95% CI), toxicity level for adult S. chrysophrii / LC80 (95% CI), toxicity level for adult S. chrysophrii: 4 h post-exposure; for LC80 (95% CI), toxicity level for adult S. chrysophrii: 80% mortality; for LC50: Sparicotyle chrysophryii, 4 h, read-out: LC50 (95% CI), toxicity level for adult S. chrysophrii; for b (SE), slope of dose–response model / e (SE), midpoint of dose–response model: Weibull type 2, c = 0, d = 1, mortality at 4 h post-exposure
Experimental: Subsequently, the monogeneans (n = 6, in triplicate) were exposed to a range of seven concentrations tailored according to each compound’s activity observed in preliminary tests. The range for each compound was scaled down to an appropriate order of magnitude so that each compound reached 100% mortality at 4 h post-exposure (Table 1).
For the dose–response curve fitting, the drc package for R (v4.0.4) was used. An appropriate nonlinear regression model was selected between log-logistic and Weibull type models, based on the Akaike information criterion (AIC) and lack-of-fit test criteria through the use of mselect function. The best scoring model was Weibull type 2 model (asymmetrical) with lower and upper limits fixed to 0 and 1, respectively, as mortality in all assays reached 100%. […] Model parameters and estimated lethal doses (20%, 50%, and 80%) were calculated with standard errors and 95% confidence intervals, based on the delta method, respectively, and adjusted for simultaneous inference through multcomp package. Dose–response curves were visualised using ggplot2 library.

SMILES | viability of SAF-1 cells compared to control (SAF-1 cells) | inhibition at 0.1 µM (Vibrio anguillarum; 0.1 µM, 5 h at 25 °C) [%] | inhibition at 1 µM (Vibrio anguillarum; 1 µM, 5 h at 25 °C) [%] | inhibition at 10 µM (Vibrio anguillarum; 10 µM, 5 h at 25 °C) [%] | inhibition at 0.1 µM (Vibrio harveyi; 0.1 µM, 5 h at 25 °C) [%] | inhibition at 1 µM (Vibrio harveyi; 1 µM, 5 h at 25 °C) [%] | inhibition at 10 µM (Vibrio harveyi; 10 µM, 5 h at 25 °C) [%] | potency / effect against V. anguillarum as judged in the discussion (Vibrio anguillarum) | antibacterial activity against V. anguillarum (Vibrio anguillarum; p < 0.05) | LC20 (95% CI), toxicity level for adult S. chrysophrii [3] | LC80 (95% CI), toxicity level for adult S. chrysophrii [3] | LC50 [3] [µM] | b (SE), slope of dose–response model [3] | e (SE), midpoint of dose–response model [3] | other results
S=C=Nc1ccc(N=C=S)cc1 [Bitoscanate, reference compound] | did not induce a significant reduction in viability | – | – | – | – | – | – | – | – | – | – | – | – | – | antimicrobial activity against V. anguillarum (Vibrio anguillarum; 10 µM, p < 0.05): best antimicrobial activity; inhibition at 0.1 µM (Vibrio anguillarum; 5 h): -10.8 ± 19.9%; inhibition at 1 µM (Vibrio anguillarum; 5 h): 19.6 ± 3.7%; inhibition at 10 µM (Vibrio anguillarum; 5 h): 30.5 ± 2%; mortality at 1000 µM ([1]; 24 h): 100%; inhibition at 0.1 µM (Vibrio harveyi; 5 h): -21.6 ± 6%; inhibition at 1 µM (Vibrio harveyi; 5 h): -0.088 ± 16.3%; inhibition at 10 µM (Vibrio harveyi; 5 h): 13.1 ± 5.1%
CCCCCCc1ccc(O)cc1O [4-Hexylresorcinol, reference compound] | did not induce a significant reduction in viability | -121 ± 10.9 | -76.1 ± 33.9 | -55.5 ± 31.6 | 19.6 ± 31.5 | 34.7 ± 10.1 | 67.5 ± 14.1 | – | – | – | – | – | – | – | mortality at 1000 µM ([1]; 1 h): 100%; bactericidal activity against V. harveyi (Vibrio harveyi; synthetic compounds, at increased concentrations): significant bactericidal activity
C[C@@H]1CC[C@H]2C(C)(C)[C@H]3C[C@@]12CC[C@@]3(C)O [Cedrol] | – | -6.9 ± 3 | 24.1 ± 8 | 30.8 ± 6.4 | -44.9 ± 7.7 | -23.8 ± 6.9 | -2.4 ± 26.9 | effective only against V. anguillarum | strongest antibacterial activity | 0.09 (0.06–0.11) mM | 0.14 (0.12–0.16) mM | 110 | 3.98 (0.66) | 0.12 (0.01) | fold increase of selectivity index (CC50/IC50) ([2]; incorporated and delivered within lipid nanocarrier, wild-type L. donovani): 2.1; IC50 ([2]; wild and drug-resistant L. donovani amastigotes infecting humans, read-out: inhibitory concentration (IC50)): 1.5 µM; times the L. donovani IC50 is lower than the LC50 observed for S. chrysophrii ([3]; IC50 1.5 μM (ref 33) against own LC50): approximately 73; reduction in sea bream fibroblasts' viability (SAF-1 cells; 10 µM, 72 h of exposure): highest reduction in sea bream fibroblasts’ viability; also recorded: moderately toxic to the host cell line during long-term exposure to very high concentrations
COc1cc(/C=C/C(=O)CC(=O)/C=C/c2ccc(O)c(OC)c2)ccc1O [Curcumin] | – | 9.5 ± 7.5 | 24.5 ± 14.6 | 34.9 ± 1.2 | 2.1 ± 15 | 7.6 ± 2.1 | 10.4 ± 4.5 | potent anti-Vibrio anguillarum agent | strongest antibacterial activity | 0.14 (0.06–0.23) mM | 0.36 (0.26–0.45) mM | 240 | 2.14 (0.44) | 0.29 (0.03) | potency / effect against V. harveyi as judged in the discussion (Vibrio harveyi): ineffective against V. harveyi; fold less toxic for the monogenean compared to cedrol ([3]; comparison with cedrol): 2; cytotoxicity in SAF-1 cells (SAF-1 cells; 10 µM for 24 h): exerted significant cytotoxicity

Reference: PMC8401465, “In Vitro Testing of Alternative Synthetic and Natural Antiparasitic Compounds against the Monogenean Sparicotyle chrysophrii” (Pathogens, 2021)
